This note sets out measurements from article PMC12736018, “Stereoselective Cytotoxicity of Enantiopure 3,3-Dichloro-γ-lactams: Correlating In Vitro Activity with In Vivo Tolerability” (Molecules, 2025).

A short description of data set [1]: Hemolysis assay. As to conditions: human, human erythrocyte suspension, pH 7.4, 10 and 80 µg/mL. Format: cell-based. The procedure:
Human blood samples were obtained from the Banc de Sang i Teixits de Barcelona (Barcelona, Spain) under the Catalan Department of Health. Blood was collected in tubes containing the anticoagulant EDTA-K3. Samples were centrifuged at 3000 rpm and 4 °C for 10 min (Megafuge 2.0 R, Heraeus Instruments, Hanau, Germany) to promote sedimentation, after which plasma was carefully eliminated using a Pasteur pipette. The remaining pellet was washed with PBS (pH 7.4) three times to remove residual leukocytes and platelets while concentrating erythrocytes. After the final wash, the erythrocyte pellet was resuspended in PBS (pH 7.4) at a 1:1 ratio to achieve a final erythrocyte concentration of 8 × 10^9 cells/mL.
The hemolysis assay is used to evaluate the ability of the tested compounds to disrupt erythrocyte membranes. Stock solutions of each compound were prepared in PBS (pH 7.4) at a concentration of 1 mg/mL. Volumes ranging from 10 to 80 μL were transferred into polystyrene tubes, followed by the addition of 25 µL of the erythrocyte suspension, bringing the total volume to 1 mL. The samples were incubated at room temperature under gentle rotation and subsequently centrifuged at 10,000 rpm for 5 min. The absorbance of the resulting supernatants at 540 nm (Shimadzu UV-160A, Shimadzu, Duisburg, Germany) was measured and compared with that of the positive control (erythrocytes hemolyzed with distilled water) and the negative control (erythrocytes suspension in PBS, pH 7.4).
The degree of hemolysis was determined using the following equation:Hemolysis (%) = 100 × (Abs − Abs0)/(Abs100 − Abs0) where Abs, Abs0 and Abs100 are the absorbance of the test samples, of the suspension treated with isotonic phosphate–buffered saline (PBS) and of the suspension of complete hemolysis treated with distilled water, respectively.

Data set [2] deals with A431 cells. The experiment in a line: NRU cell viability assay, A431. Conditions: Homo sapiens, A-431, 24 h. Format: cell-based, human. As for the experimental part: (§1) The murine Swiss albino fibroblast (3T3), the immortal human keratinocyte (HaCaT), the squamous cell carcinoma (A431), the human epithelial carcinoma (HeLa) and the human breast adenocarcinoma (MCF-7) cell lines were sourced from Celltec UB (Barcelona, Spain). All cells were maintained and grown in DMEM medium (4.5 g/L glucose) supplemented with 10% (v/v) FBS, 2 mM L-glutamine, 100 U/mL penicillin and 100 μg/mL streptomycin at 37 °C, 5% CO2. Cells were routinely cultured in 75 cm^2 culture flasks and were trypsinized using trypsin-EDTA when the cells reached approximately 80%. Cell concentration in the resulting suspension was assessed using the trypan blue assay, which enables direct discrimination between viable (unstained) and non-viable (blue) cells.
(§2) T3 and HaCaT cells (1 × 10^5 cells/mL), along with A431, HeLa, and MCF-7 cells (5 × 10^4 cells/mL), were cultured at defined seeding densities in the 60 central wells of a 96-well plate. Cells were first incubated for 24 h under standard incubator conditions (5% CO2, 37 °C). After this period, the culture medium was removed, and the cells were incubated for an additional 24 h with their corresponding compound solutions (1 mg/mL) previously diluted in a minimum amount of DMF (dimethylformamide) and then in DMEM medium supplemented with 5% FBS (100 µL) at the required concentration range (20 to 250 µg/mL). Cell viability following exposure to the lactam derivatives was evaluated using two complementary assays: NRU and MTT.
(§3) The neutral red uptake (NRU) assay is based on the accumulation of dye in the lysosomes of viable cells. After the cells were incubated for 24 h with the corresponding systems, the medium was removed, and the solutions were incubated with the NR dye (Sigma-Aldrich, St. Louis, MO, USA) solution (50 µg/mL) dissolved in the medium, without FBS and without phenol red (Lonza, Verviers, Belgium), for 3 h. Cells were then washed with sterile PBS, followed by the addition of 100 µL of a solution containing 50% absolute ethanol and 1% acetic acid in distilled water to extract the dye. To promote the total dissolution of the dye, plates were placed in a microtiter-plate shaker for 5 min at room temperature. The absorbance of the resulting solutions was measured at 550 nm (Bio-Rad 550 microplate reader, Bio-Rad California, Hercules, CA, USA). Finally, the effect of each treatment was calculated as the percentage of dye uptake by viable cells relative to the control cells (cells without any treatment). Finally, the effect of each treatment was calculated as the percentage of dye retained by viable cells compared with untreated control cells.
(§4) The half-maximal inhibitory concentration (IC50) values for the different formulations, across cell lines and experimental endpoints, were obtained by fitting the concentration-dependent viability curves. […] These findings reflect the very low cytotoxicity of the compounds toward these cell lines.

For data set [3], the system named is HeLa cells. The experiment in a line: NRU cell viability assay, HeLa. Conditions: Homo sapiens, 24 h. Format: cell-based, human. The procedure:
as §1, §2, §3, §4

The subject of data set [4] is MCF-7 cells. The data set can be described thus: NRU cell viability assay, MCF-7. Format: cell-based, human. As to conditions: Homo sapiens, MCF7; MCF-7, NRU, 24 h. The procedure:
as §1, §2, §3, §4

Data set [5] concerns HaCaT cells. The data set can be described thus: NRU cell viability assay, HaCaT. Format: cell-based. As to conditions: Homo sapiens, 24 h. As for the experimental part:
as §1, §2
as §3, with “[…]” for “control cells.”

The test system of data set [6] is zebrafish embryos. The data set can be described thus: Fish Embryo Acute Toxicity (FET) assay: lethality and dysmorphogenesis. The format is in vivo. Conditions: for EC50: Danio rerio, read-out: EC50 (dysmorphogenesis); for teratogenicity classification: TI > 2; for Teratogenic Index (TI = LC50/EC50): zebrafish embryos. The procedure: (§5) (2 mM CaCl2·2H2O; 0.5 mM MgSO4·7H2O; 0.75 mM NaHCO3; 0.07 mM KCl). The fish were maintained at a temperature of 26 ± 1 °C on a 14 h light and 10 h dark cycle and were daily fed in the morning with Artemia salina, and with commercial flake food in the afternoon (SDS400, Special Diet Services, Dietex, France). The day before eggs were needed, males and females were placed in a breeding tank with plants at a 2:1 male-to-female ratio. The following morning, eggs were collected 30 min after the lights were turned on. […] Fertilized, non-coagulated, and synchronously divided eggs were selected using a stereomicroscope (Motic SMZ168, Motic China group, Ltd., Xiamen, China) and transferred to 6-well plates (10 embryos/well). Embryos were exposed to freshly prepared tested concentrations of the compound in 0.3× Danieau’s solution. Chemical stock solution was prepared in 100% dimethylsulfoxide (DMSO) and subsequently diluted in Danieau’s buffer with a final DMSO concentration of 1% (v/v). Test was carried out using five concentrations with a negative control, solvent control with 1% of DMSO. Embryos were incubated at 27 ± 1 °C with a light–dark cycle of 14:10 h until 72 h post-fertilization (hpf) under semi-static conditions, as exposure solutions were renewed by freshly prepared solutions every 24 h.
(§6) At 24, 48 and 72 hpf embryos were observed under a stereomicroscope to assess lethality. […] At the end of the test, dysmorphogenesis was evaluated in live embryos only. The average lethality and dysmorphogenesis were calculated for 10 embryos per concentration, followed by averaging the results of at least three independent experiments. […] The Teratogenic Index (TI) was deter-mined as the ratio between the LC50 and EC50 (TI = LC50/EC50).

Test in data set [7]: as above
The format is in vivo. As to conditions: zebrafish (Danio rerio), in vivo; zebrafish embryos exposed 2 to 72 hpf, 1.95-125 µg/mL; read-out: LC50 (lethal concentration 50). As for the experimental part: as §5, §6

Converted amounts (≈) assume the structure as drawn.

Compound `C[C@@H]1CN([C@@H](C)c2ccccc2)C(=O)C1(Cl)Cl` [Compound 3, (R)-3,3-dichloro-4-methyl-1-((S)-1-phenylethyl)pyrrolidin-2-one] returned a hemolysis in data set [1] of less than 2%. Further, the IC50 (usually the concentration needed to halve the response being measured) is 60.2 µg/mL (≈ 221 µM) in data set [2], 160 µg/mL (≈ 588 µM) in data set [3], 60 µg/mL (≈ 220 µM) in data set [4] and more than 250 µg/mL in data set [5]. Also, in data set [6], the EC50 (as a rule, the concentration needed to bring the measured effect to its halfway point) was 18.3 µg/mL (≈ 67.1 µM). In addition, the teratogenicity classification entry in data set [6] was “potential teratogens”. In data set [6], the “Teratogenic Index (TI = LC50/EC50)” value is given as 3.5. Also, the LC50 in data set [7] came to 63.8 µg/mL (≈ 234 µM).

In data set [1], `C[C@H](c1ccccc1)N1C[C@H](C)C(Cl)(Cl)C1=O` [Compound 4] yielded a hemolysis of less than 2%. The half-maximal inhibitory concentration (IC50) is 108 µg/mL (≈ 396 µM) in data set [2], 77.5 µg/mL (≈ 285 µM) in data set [3], more than 250 µg/mL in data set [4] and more than 250 µg/mL in data set [5]. Also, the EC50 in data set [6] worked out at 11.2 µg/mL (≈ 41.3 µM). In data set [6], the teratogenicity classification result was “potential teratogens”. Further, in data set [6] (at 15.6 µg/mL), the “embryos exhibiting morphological abnormalities” value is “more than 20%”. The “Teratogenic Index (TI = LC50/EC50)” value in data set [6] is recorded as 2.95. Besides, the LC50 in data set [7] amounted to 33.2 µg/mL (≈ 122 µM).
